Residues, ends and D or L forms follow the SMILES beside them. No end group written: not given here.
Key:
Type in all cases: cell-based
[1] = test system: human fetal neurons (HFNs); assay: Aβ1-42 cytotoxicity (MTT, live/dead) in human fetal neurons; details: for block of Aβ1-42 triggered cell death, human fetal neuronal cells (MTT): Aβ1-42 20 μM
Description: (§1) b) To investigate the antagonistic activity of peptides against Aβ cytotoxicity in vitro, HFNs and N2a cells were used. Cells were seeded to 5000 cells/well in a 96-well plate in MEM-10% FBS and DMEM/OptiMEM-5% FBS for overnight. […] At the end of treatment, 20 μl of 5 mg/ml methylthiazolyldiphenyl-tetrazolium bromide (MTT) was added to each well, and incubated at 37° C. for 3 hours. Medium was removed, 100 μl of MTT solvent (isopropanol with 4 mM HCl) added to each well, and the plates were incubated for 30 minutes at room temperature on a rotating shaker. Plates were analyzed on a microplate reader at a 562-nm wavelength. The Live/Dead assay kit was purchased from Invitrogen and assay followed the production instruction. The assayed cells were fixed with 4% paraformaldehyde in PBS and photo imaged with Axio Zeiss fluorescent microscopy. The dead cells were further counted using ImageJ software.
(§2) f) To investigate the antagonistic activity of peptide fragments against Aβ cytotoxicity in vitro, (human fetal neurons) HFNs, human neuroblastoma, SK-N-SH cells and N2a mouse neuroblastoma cells were used. Cells were seeded to 5000 cells/well in a 96-well plate in MEM-10% FBS and DMEM/OptiMEM-5% FBS for overnight. Cells in culture media were preincubated for 8 h with or without AC253 or fragments R5, R14, R11, and followed by treatment with Aβ1-42 for 24 h. At the end of treatment, 20 μl of 5 mg/ml methylthiazolyldiphenyl-tetrazolium bromide (MTT) was added to each well, and incubated at 37° C. for 3 h. Medium was removed, 100 μl of MTT solvent (isopropanol with 4 mM HCl) added to each well, and the plates were incubated for 30 min at room temperature on a rotating shaker. Plates were analyzed on a microplate reader at a 562-nm wavelength.

[2] = biological target: T1, AMY3 receptor (HEK293-AMY3 cells) (Homo sapiens, UniProt O60896+P30988); assay: Flow cytometry binding and uptake of Cy5 labeled peptides in AMY3-HEK cells; details: for flow cytometry binding to HEK293-AMY3 cells: 10 μM
T1 construct: expressed in transfected cells; AMY3-293 / AMY3-HEK)
T1 sequence (P30988 25-474): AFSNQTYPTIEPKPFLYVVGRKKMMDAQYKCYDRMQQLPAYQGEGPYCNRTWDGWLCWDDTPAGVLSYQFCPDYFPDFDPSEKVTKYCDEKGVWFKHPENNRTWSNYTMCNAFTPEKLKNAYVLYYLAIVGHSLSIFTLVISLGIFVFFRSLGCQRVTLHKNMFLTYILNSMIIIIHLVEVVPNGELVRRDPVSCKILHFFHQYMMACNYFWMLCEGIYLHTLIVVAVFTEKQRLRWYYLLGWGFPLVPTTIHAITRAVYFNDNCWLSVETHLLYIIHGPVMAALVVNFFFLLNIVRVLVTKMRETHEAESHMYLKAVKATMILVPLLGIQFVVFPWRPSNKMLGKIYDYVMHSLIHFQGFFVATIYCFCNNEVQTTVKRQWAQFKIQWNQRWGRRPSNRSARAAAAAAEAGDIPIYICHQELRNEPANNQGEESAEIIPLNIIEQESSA
T1 sequence (O60896 24-148 partner): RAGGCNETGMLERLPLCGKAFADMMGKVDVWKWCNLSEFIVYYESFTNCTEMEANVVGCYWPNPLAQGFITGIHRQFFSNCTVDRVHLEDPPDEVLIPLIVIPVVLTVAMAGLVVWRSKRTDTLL
Description: d) For flow cytometry studies, AMY3-293 cells were used to determine cell binding and uptake and binding of Cy5-AC253, and Cy5-cAC253 peptides. Cell were plated at a density of 1.5×10^5 cells/well and cultured overnight in 12-well plates at 37° C. Cy5 labelled peptides (5 μM) were added and incubated for 1 hour at 37° C. in serum free media. The culture media was discarded, and cell monolayers were washed with PBS containing 2 mM EDTA and 0.5% BSA adjusted to pH 7.4 at 37° C. Cells were washed again with cold buffer and incubated with 0.25% trypsin to remove cell surface-associated fluorophores. Cells were dispersed in FACS solution (10% FBS in PBS) and analyzed using a FACSCanto II flow cytometer (BD Biosciences, USA) selecting a detection window between 720 and 840 nm. Fluorescence histograms and dot plots were generated using the data were processed with FLOWJO software (Tree Star, Inc, USA). At least 10,000 gated events per sample were analyzed. The experiment was repeated with different peptide concentration ranging from 0.5-10 μM, and mean fluorescence intensity of peptides was extrapolated. To further study the cell uptake mechanism, cells were preincubated with cytochalasin D (cytoD, […]) for 30 minutes, and the experiment was repeated as above. To determine the energy dependent mechanism, cell uptake experiment was undertaken at 4° C., and for the competition experiment, cells was pre-incubated with amylin (30 μM) for 30 minutes, and the experiment was repeated.

[3] = test system: N2a mouse neuroblastoma cells; assay: Aβ1-42 cytotoxicity (MTT) in N2a cells; details: for block of Aβ1-42 triggered cell death, N2a (MTT): Aβ1-42 20 μM
Description: as §1, §2

In the case of `CC(C)C[C@H](NC(=O)[C@H](CCCNC(=N)N)NC(=O)CNC(=O)[C@@H](N)CC(C)C)C(=O)N[C@@H](CO)C(=O)N[C@@H](CCC(N)=O)C(=O)N[C@@H](CCC(=O)O)C(=O)N[C@@H](CC(C)C)C(=O)N[C@@H](Cc1c[nH]cn1)C(=O)N[C@@H](CCCNC(=N)N)C(=O)N[C@@H](CC(C)C)C(=O)N[C@@H](CCC(N)=O)C(=O)N[C@H](C(=O)N[C@@H](Cc1ccc(O)cc1)C(=O)N1CCC[C@H]1C(=O)N[C@@H](CCCNC(=N)N)C(=O)N[C@H](C(=O)N[C@@H](CC(N)=O)C(=O)N[C@H](C(=O)NCC(=O)N[C@@H](CO)C(=O)N[C@@H](CC(N)=O)C(=O)N[C@H](C(=O)N[C@@H](Cc1ccc(O)cc1)C(N)=O)[C@@H](C)O)[C@@H](C)O)[C@@H](C)O)[C@@H](C)O` [AC253], the “attenuation of Aβ1-42 induced cell death, HFNs” value ([1]; Aβ1-42 10 μM, peptide 10 μM pre-applied, MTT and live-dead assays) is reported as “attenuated”, the “mean fluorescence intensity at 4° C.” value ([2]; 4° C.) is reported as 400±75 and the “mean fluorescence intensity, binding and uptake” value ([2]; Cy5 labeled peptide 5 μM, 60 min, 37° C.) is reported as 1200. For the same compound, the “mean fluorescence intensity after pre-incubation with hAmylin” value ([2]; hAmylin (30 μM) pre-incubation 30 minutes) was 500±100, the “mean fluorescence intensity in the presence of cytoD” value ([2]; preincubation with cytochalasin D) was 450±50 and the “attenuation of Aβ1-42 induced cell death, N2a” value ([3]; Aβ1-42 10 μM, peptide 10 μM pre-applied, MTT) was “attenuated”.

For `CC(C)C[C@H](NC(=O)[C@H](CCC(=O)O)NC(=O)[C@H](CCC(N)=O)NC(=O)[C@@H](N)CO)C(=O)N[C@@H](Cc1c[nH]cn1)C(=O)N[C@@H](CCCNC(=N)N)C(=O)N[C@@H](CC(C)C)C(=O)N[C@@H](CCC(N)=O)C(=O)N[C@H](C(=O)N[C@@H](Cc1ccc(O)cc1)C(=O)N1CCC[C@H]1C(=O)N[C@@H](CCCNC(=N)N)C(N)=O)[C@@H](C)O` [R5] (H-SQELHRLQTYPR-NH2; N-terminus assumed), the “block of Aβ1-42 triggered cell death, human fetal neuronal cells (MTT)” value [1] was “block the effect of Aβ1-42”, the “flow cytometry binding to HEK293-AMY3 cells” value ([2]; 37° C., 60 min) was “selective and significant specific binding” and the “block of Aβ1-42 triggered cell death, N2a (MTT)” value [3] was “block the effect of Aβ1-42”.

With “LGRLSQELHRLQTY (LGRLSQELHRLQTY-NH2) [R14]” the “block of Aβ1-42 triggered cell death, human fetal neuronal cells (MTT)” value [1] was “block the effect of Aβ1-42”, the “flow cytometry binding to HEK293-AMY3 cells” value ([2]; 37° C., 60 min) was “selective and significant specific binding” and the “block of Aβ1-42 triggered cell death, N2a (MTT)” value [3] was “block the effect of Aβ1-42”.
